Data set [1] is described as follows: Kinetic solubility of the compound in HCl at pH 2 after 20 hrs by shake flask method. The data set is classed as physicochemical. To be noted: read-out: Kinetic_solubility.
A short description of data set [2]: Kinetic solubility of the compound in phosphate buffered saline at pH 6.5 after 20 hrs by shake flask method. Format: physicochemical. The conditions noted are these: read-out: Kinetic_solubility.
The nature of data set [3]: Kinetic solubility of the compound in FaSSIF at pH 6.5 after 20 hrs by shake flask method. The data set is classed as physicochemical. The conditions noted are these: read-out: Kinetic_solubility.
The nature of data set [4]: Drug metabolism in iv or po dosed Sprague-Dawley rat plasma assessed as oxidation of phenyl ring by LC-MS/MS method. Format: ADME, organism-based. The conditions noted are these: in vivo.
Data set [5] is described as follows: Drug metabolism in iv or po dosed Sprague-Dawley rat plasma assessed as oxidation of pyridine ring by LC-MS/MS method. Format: ADME, organism-based. The conditions noted are these: in vivo.
Data set [6] in a line: Cmax in NOD-scid IL-2Rgamma-null mouse model engrafted with Plasmodium falciparum 3D7 infected human erythrocytes at 50 mg/kg administered via oral gavage measured over 23 hrs post first dose by LC-MS/MS method. The data set is classed as ADME, organism-based. Further details: dose 50 mg/kg, route oral. To be noted: in vivo.
Data set [7] concerns Mus musculus. The experiment in a line: Dose normalized Cmax in NOD-scid IL-2Rgamma-null mouse model engrafted with Plasmodium falciparum 3D7 infected human erythrocytes at 5 mg/kg administered via oral gavage measured over 23 hrs post first dose by LC-MS/MS method. Format: ADME, organism-based. To be noted: in vivo.
A short description of data set [8]: Tmax in NOD-scid IL-2Rgamma-null mouse model engrafted with Plasmodium falciparum 3D7 infected human erythrocytes at 5 mg/kg administered via oral gavage measured over 23 hrs post first dose by LC-MS/MS method. Format: ADME, organism-based. To be noted: in vivo.
Data set [9] in a line: AUC (0 to 23 hrs) in NOD-scid IL-2Rgamma-null mouse model engrafted with Plasmodium falciparum 3D7 infected human erythrocytes at 5 mg/kg administered via oral gavage by LC-MS/MS method. The conditions noted are these: in vivo. The data set is classed as ADME, organism-based. Further details: dose 5 mg/kg, time < 23 hr, route oral.
Data set [10] can be described thus: Oral bioavailability in Sprague-Dawley rat at 20 mg/kg administered via gavage as bolus dose by LC-MS/MS method. The conditions noted are these: in vivo. The data set is classed as ADME, organism-based.
The subject of data set [11] is Rattus norvegicus. The experiment in a line: Dose normalized AUC (0 to infinity) in Sprague-Dawley rat at 20 mg/kg administered via oral gavage as bolus dose by LC-MS/MS method. The data set is classed as ADME, organism-based. To be noted: in vivo.
In data set [12] the test system is Mus musculus. The data set is described as follows: Dose normalized AUC (0 to 23 hrs) in NOD-scid IL-2Rgamma-null mouse model engrafted with Plasmodium falciparum 3D7 infected human erythrocytes at 5 mg/kg administered via oral gavage by LC-MS/MS method. The data set is classed as ADME, organism-based. The conditions noted are these: in vivo.
Data set [13] can be described thus: Tmax in NOD-scid IL-2Rgamma-null mouse model engrafted with Plasmodium falciparum 3D7 infected human erythrocytes at 25 mg/kg administered via oral gavage measured over 23 hrs post first dose by LC-MS/MS method. Format: ADME, organism-based. The conditions noted are these: in vivo.
Data set [14] in a line: Tmax in Sprague-Dawley rat at 20 mg/kg administered via oral gavage as bolus dose by LC-MS/MS method. To be noted: in vivo. The data set is classed as ADME, organism-based.
Data set [15] concerns Mus musculus. The experiment in a line: Dose normalized Cmax in NOD-scid IL-2Rgamma-null mouse model engrafted with Plasmodium falciparum 3D7 infected human erythrocytes at 25 mg/kg administered via oral gavage measured over 23 hrs post first dose by LC-MS/MS method. The data set is classed as ADME, organism-based. To be noted: in vivo.
A short description of data set [16]: Cmax in Sprague-Dawley rat at 5 mg/kg, iv administered as 2 mins of infusion by LC-MS/MS method. The data set is classed as ADME, organism-based. Further details: dose 5 mg/kg, route intravenous. The conditions noted are these: in vivo.
Data set [17] can be described thus: AUC (0 to 23 hrs) in NOD-scid IL-2Rgamma-null mouse model engrafted with Plasmodium falciparum 3D7 infected human erythrocytes at 50 mg/kg administered via oral gavage by LC-MS/MS method. The data set is classed as ADME, organism-based. Also on record: dose 50 mg/kg, time < 23 hr, route oral. To be noted: in vivo.
Data set [18] deals with Mus musculus. The data set is described as follows: Dose normalized AUC (0 to infinity) in BALB/c mouse at 10 mg/kg administered via oral gavage as bolus dose by LC-MS/MS method. Format: ADME, organism-based. The conditions noted are these: in vivo.
Data set [19] in a line: AUC (0 to 23 hrs) in NOD-scid IL-2Rgamma-null mouse model engrafted with Plasmodium falciparum 3D7 infected human erythrocytes at 25 mg/kg administered via oral gavage by LC-MS/MS method. Also on record: time < 23 hr, dose 25 mg/kg, route oral. The conditions noted are these: in vivo. Format: ADME, organism-based.
The nature of data set [20]: Cmax in NOD-scid IL-2Rgamma-null mouse model engrafted with Plasmodium falciparum 3D7 infected human erythrocytes at 10 mg/kg administered via oral gavage measured over 23 hrs post first dose by LC-MS/MS method. Format: ADME, organism-based. The conditions noted are these: in vivo. Also on record: dose 10 mg/kg, route oral.
The nature of data set [21]: Tmax in NOD-scid IL-2Rgamma-null mouse model engrafted with Plasmodium falciparum 3D7 infected human erythrocytes at 10 mg/kg administered via oral gavage measured over 23 hrs post first dose by LC-MS/MS method. To be noted: in vivo. The data set is classed as ADME, organism-based.
Data set [22] is described as follows: Cmax in BALB/c mouse at 10 mg/kg administered via oral gavage as bolus dose by LC-MS/MS method. The data set is classed as ADME, organism-based. Further details: dose 10 mg/kg, route oral. The conditions noted are these: in vivo.
Data set [23] has as its system Mus musculus. The data set is described as follows: Dose normalized AUC (0 to 23 hrs) in NOD-scid IL-2Rgamma-null mouse model engrafted with Plasmodium falciparum 3D7 infected human erythrocytes at 25 mg/kg via oral gavage by LC-MS/MS method. To be noted: in vivo. The data set is classed as ADME, organism-based.
Data set [24] in a line: AUC (0 to 23 hrs) in NOD-scid IL-2Rgamma-null mouse model engrafted with Plasmodium falciparum 3D7 infected human erythrocytes at 10 mg/kg administered via oral gavage by LC-MS/MS method. To be noted: in vivo. Format: ADME, organism-based. Also on record: dose 10 mg/kg, time < 23 hr, route oral.
A short description of data set [25]: Cmax in NOD-scid IL-2Rgamma-null mouse model engrafted with Plasmodium falciparum 3D7 infected human erythrocytes at 25 mg/kg administered via oral gavage measured over 23 hrs post first dose by LC-MS/MS method. The conditions noted are these: in vivo. Also on record: dose 25 mg/kg, route oral. The data set is classed as ADME, organism-based.
The nature of data set [26]: Cmax in Sprague-Dawley rat at 20 mg/kg administered via oral gavage as bolus dose by LC-MS/MS method. Format: ADME, organism-based. Further details: dose 20 mg/kg, route oral. To be noted: in vivo.
Data set [27] can be described thus: Tmax in NOD-scid IL-2Rgamma-null mouse model engrafted with Plasmodium falciparum 3D7 infected human erythrocytes at 50 mg/kg administered via oral gavage measured over 23 hrs post first dose by LC-MS/MS method. The data set is classed as ADME, organism-based. The conditions noted are these: in vivo.
In data set [28] the test system is Mus musculus. The experiment in a line: Dose normalized AUC (0 to 23 hrs) in NOD-scid IL-2Rgamma-null mouse model engrafted with Plasmodium falciparum 3D7 infected human erythrocytes at 10 mg/kg administered via oral gavage by LC-MS/MS method. The data set is classed as ADME, organism-based. The conditions noted are these: in vivo.
The nature of data set [29]: Cmax in NOD-scid IL-2Rgamma-null mouse model engrafted with Plasmodium falciparum 3D7 infected human erythrocytes at 5 mg/kg administered via oral gavage measured over 23 hrs post first dose by LC-MS/MS method. The conditions noted are these: in vivo. Also on record: dose 5 mg/kg, route oral. Format: ADME, organism-based.
Data set [30] relates to Mus musculus. The experiment in a line: Dose normalized AUC (0 to 23 hrs) in NOD-scid IL-2Rgamma-null mouse model engrafted with Plasmodium falciparum 3D7 infected human erythrocytes at 50 mg/kg administered via oral gavage by LC-MS/MS method. Format: ADME, organism-based. To be noted: in vivo.
The nature of data set [31]: Tmax in BALB/c mouse at 10 mg/kg administered via oral gavage as bolus dose by LC-MS/MS method. Format: ADME, organism-based. The conditions noted are these: in vivo.
Data set [32] deals with Mus musculus. The data set is described as follows: Dose normalized Cmax in NOD-scid IL-2Rgamma-null mouse model engrafted with Plasmodium falciparum 3D7 infected human erythrocytes at 50 mg/kg administered via oral gavage measured over 23 hrs post first dose by LC-MS/MS method. Format: ADME, organism-based. The conditions noted are these: in vivo.
A short description of data set [33]: Volume of distribution in Sprague-Dawley rat at 5 mg/kg, iv administered as 2 mins of infusion by LC-MS/MS method. The data set is classed as ADME, organism-based. The conditions noted are these: in vivo.
Data set [34] has as its system Mus musculus. The experiment in a line: Dose normalized Cmax in NOD-scid IL-2Rgamma-null mouse model engrafted with Plasmodium falciparum 3D7 infected human erythrocytes at 10 mg/kg administered via oral gavage measured over 23 hrs post first dose by LC-MS/MS method. Format: ADME, organism-based. The conditions noted are these: in vivo.
Data set [35] relates to Rattus norvegicus. The experiment in a line: Dose normalized AUC (0 to infinity) in Sprague-Dawley rat at 5 mg/kg, iv administered as 2 mins of infusion by LC-MS/MS method. Format: ADME, organism-based. The conditions noted are these: in vivo.
Data set [36] is described as follows: Drug metabolism in iv or po dosed BALB/c mouse plasma assessed as oxidation of cyclopentane ring by LC-MS/MS method. The data set is classed as ADME, organism-based. The conditions noted are these: in vivo.
A short description of data set [37]: Drug metabolism in iv or po dosed BALB/c mouse plasma assessed as dioxidation of cyclopentane ring by LC-MS/MS method. Format: ADME, organism-based. The conditions noted are these: in vivo.
A short description of data set [38]: Drug metabolism in iv or po dosed BALB/c mouse plasma assessed as oxidation and dehydrogenation of cyclopentane ring by LC-MS/MS method. Format: ADME, organism-based. The conditions noted are these: in vivo.

Converted amounts (≈) assume the structure as drawn.

Results on three compounds are retold here after ChEMBL document CHEMBL4184318, “Identification of Fast-Acting 2,6-Disubstituted Imidazopyridines That Are Efficacious in the in Vivo Humanized Plasmodium falciparum NODscidIL2Rγ null Mouse Model of Malaria” (J Med Chem, 2018).

For `Fc1ccc(Nc2cc3[nH]c(-c4ccc(F)c(F)c4)nc3cn2)nc1`, the results for the solubility kinetic at 20 h in data set [1], in data set [2] and in [3] were 42 µM (≈ 14.3 µg/mL), less than 5 µM and 50 to 100 µM (≈ 17.1 to 34.1 µg/mL), respectively. Also, the Drug metabolism result in data set [4] is “Metabolite_Notdetected”; in data set [5], “Metabolite_Detected”.
Consider `Fc1ccc(Nc2cc3[nH]c(-c4ccc(F)c(C(F)(F)F)c4)nc3cn2)nc1`, for which the maximum concentration (Cmax) was determined as 4860 ng/mL in data set [6]; 5.4 µM in data set [16]; 1580 ng/mL in data set [20]; 4 µM in [22]; 3090 ng/mL in [25]; 4.7 µM in [26]. Also, the highest level in data set [29] (Cmax) was 573 ng/mL. The Cmax/dose in [7] came out at 0.115 µg/mL/mg/kg; in [15] it was 0.155 µg/mL/mg/kg; in data set [32] it was 0.097 µg/mL/mg/kg; in data set [34], 0.158 µg/mL/mg/kg. The Tmax in [8] was 4 to 6 h; in [13], 4 h; in data set [14], 12 h; in data set [21], 4 h; in data set [27], 2 to 4 h; in [31] it was 1.7 h. The AUC(0-t) at 23 h in data set [9] is 6510 ng·h/mL; in data set [17], 84100 ng·h/mL; in [19], 32600 ng·h/mL; in data set [24], 16900 ng·h/mL. In [10], this compound returned a bioavailability of 88%. The AUC/dose in data set [11] was 5923 µM·min; in [12], 1.302 µg·h/mL/mg/kg; in data set [18] it was 2622 µM·min; in [23] it was 1.632 µg·h/mL/mg/kg; in [28], 1.686 µg·h/mL/mg/kg; in data set [30] it was 1.681 µg·h/mL/mg/kg. The compound also returned an AUC/dose in data set [35] of 1692 µM·min. For the same compound, the solubility kinetic at 20 h in data set [1] is 13 µM (≈ 5.09 µg/mL); in data set [2], less than 5 µM; in [3], 50 to 100 µM (≈ 19.6 to 39.1 µg/mL). Further, the figures for the Drug metabolism entry in [4] and in data set [5] were “Metabolite_Notdetected” and “Metabolite_Detected”, respectively. In data set [33], this compound yielded a Vd of 2.3 L/kg.
Consider `FC(F)(F)c1ccc(Nc2cc3[nH]c(C4CCCC4)nc3cn2)nc1`, for which the Drug metabolism result in [36], in data set [37] and in data set [38] was “Metabolite_Detected” throughout. Also, the solubility kinetic at 20 h amounted to 132 µM (≈ 45.8 µg/mL) in [1], 145 µM (≈ 50.4 µg/mL) in [2] and 85 µM (≈ 29.5 µg/mL) in data set [3].
